The test deals with P388. The test can be described thus: Cytotoxicity against mouse P388 cells. The test is classed as functional. The following applies: read-out: ID50 (the source's name).

Some results are limits rather than exact numbers.

Turning to `CCCCCCCCCC(O)C#CC#C/C=C\OCC(O)CO` (configuration not stated), the IC50 was more than 11 µg/mL.

Take `CC(C)CCCCCC(O)C#CC#C/C=C\OCC(O)CO` (configuration not stated): the IC50 was more than 6 µg/mL.

For the origin of these results see ChEMBL document CHEMBL1158908, “Diyne Enol Ethers of Glycerol from a New Zealand Sponge, Petrosia hebes” (1990).
